From ChEMBL document CHEMBL1142776, “In vitro binding of leukotriene B4 (LTB4) to human serum albumin: evidence from spectroscopic, molecular modeling, and competitive displacement studies” (Bioorg Med Chem Lett, 2005)

Biological target: Albumin (Homo sapiens, UniProt P02768)
Assay: In vitro Ka value against human serum albumin; N=1

Sequence of Albumin (P02768 whole entry): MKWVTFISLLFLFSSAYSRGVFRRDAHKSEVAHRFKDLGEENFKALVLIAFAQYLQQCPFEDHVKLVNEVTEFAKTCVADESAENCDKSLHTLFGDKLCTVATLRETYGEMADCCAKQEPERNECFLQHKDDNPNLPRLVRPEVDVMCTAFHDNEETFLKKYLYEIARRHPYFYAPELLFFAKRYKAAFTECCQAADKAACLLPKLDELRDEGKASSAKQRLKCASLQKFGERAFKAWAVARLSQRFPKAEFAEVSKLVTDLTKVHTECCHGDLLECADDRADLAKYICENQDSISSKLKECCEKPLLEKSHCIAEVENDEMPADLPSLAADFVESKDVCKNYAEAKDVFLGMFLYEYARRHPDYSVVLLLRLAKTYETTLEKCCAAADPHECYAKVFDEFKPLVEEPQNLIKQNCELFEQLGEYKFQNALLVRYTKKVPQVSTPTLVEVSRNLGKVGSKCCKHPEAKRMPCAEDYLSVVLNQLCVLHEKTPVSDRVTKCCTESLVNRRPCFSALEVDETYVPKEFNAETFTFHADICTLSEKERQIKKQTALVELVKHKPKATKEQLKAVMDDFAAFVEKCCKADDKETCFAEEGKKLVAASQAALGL

A Ka of 67000 M⁻¹ was found for `CCCCC/C=C\C[C@@H](O)/C=C/C=C/C=C\[C@@H](O)CCCC(=O)O` [LEUKOTRIENE_B4] in this work.
